From PubChem BioAssay (NCI)
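Values below derive from 48-hour exposures of cells grown in 96-well plates, with endpoints linearly interpolated between the two concentrations bracketing the appropriate inhibition level. At the TGI there is no net growth.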

Legend:
Experiment in all cases: growth of human tumour cells (NCI), 48 h
[1] = test system: OVCAR-4 ovarian
[2] = test system: HCT-116 colon
[3] = test system: UO-31 renal
[4] = test system: RPMI-8226 leukemia
[5] = test system: T-47D breast
[6] = test system: BT-549 breast
[7] = test system: SK-MEL-2 melanoma
[8] = test system: HCT-15 colon
[9] = test system: SK-MEL-5 melanoma
[10] = test system: HT29 colon
[11] = test system: TK-10 renal
[12] = test system: LOX IMVI melanoma
[13] = test system: K-562 leukemia
[14] = test system: PC-3 prostate
[15] = test system: DU-145 prostate
[16] = test system: COLO 205 colon
[17] = test system: M14 melanoma
[18] = test system: KM12 colon
[19] = test system: A549 NSCLC
[20] = test system: OVCAR-3 ovarian
[21] = test system: NCI-H23 lung
[22] = test system: MDA-N
[23] = test system: NCI-H522 lung
[24] = test system: SNB-19 CNS
[25] = test system: SK-OV-3 ovarian
[26] = test system: NCI-H460 lung
[27] = test system: HS 578T breast
[28] = test system: EKVX NSCLC
[29] = test system: HOP-62 NSCLC
[30] = test system: HCC-2998 colon
[31] = test system: CCRF-CEM leukemia
[32] = test system: HL-60(TB) leukemia
[33] = test system: SF-295 CNS
[34] = test system: SW-620 colon
[35] = test system: MDA-MB-231 breast
[36] = test system: UACC-62 melanoma
[37] = test system: ACHN renal
[38] = test system: OVCAR-5 ovarian
[39] = test system: MDA-MB-435
[40] = test system: SR leukemia
[41] = test system: 786-0 renal
[42] = test system: A498 renal
[43] = test system: NCI-H226 lung
[44] = test system: SF-539 CNS
[45] = test system: MALME-3M melanoma
[46] = test system: HOP-92 NSCLC
[47] = test system: OVCAR-8 ovarian
[48] = test system: IGROV1 ovarian
[49] = test system: CAKI-1 renal
[50] = test system: SK-MEL-28 melanoma
[51] = test system: UACC-257 melanoma
[52] = test system: U251 CNS
[53] = test system: MOLT-4 leukemia
[54] = test system: NCI/ADR-RES ovarian
[55] = test system: SN12C renal
[56] = test system: MCF7 breast
[57] = test system: RXF 393 renal
[58] = test system: SF-268 CNS
[59] = test system: SNB-75 CNS

Measured: TGI

O=C(O)CCC(=O)Nc1ccc2c(c1)S(=O)(=O)N(CC(=O)O)C2=O
> 100 µM: [1] | [2] | [3] | [4] | [5] | [6] | [7] | [8] | [9] | [10] | [11] | [12] | [13] | [14] | [15] | [16] | [17] | [18] | [19] | [20] | [21] | [22] | [23] | [24] | [25] | [26] | [27] | [28] | [29] | [30] | [31] | [32] | [33] | [34] | [35] | [36] | [37] | [38] | [39] | [40] | [41] | [42] | [43] | [44] | [45] | [46] | [47] | [48] | [49] | [50] | [51] | [52] | [53] | [54] | [55] | [56]

Nc1ncc2c(n1)-c1ccccc1OC2NC1CC1 (stereo not given)
> 100 µM: [1] | [2] | [3] | [4] | [5] | [6] | [7] | [57] | [8] | [9] | [10] | [11] | [12] | [14] | [15] | [16] | [17] | [18] | [58] | [19] | [20] | [21] | [22] | [23] | [24] | [25] | [26] | [27] | [28] | [31] | [32] | [33] | [34] | [35] | [36] | [37] | [38] | [39] | [40] | [41] | [42] | [43] | [44] | [46] | [47] | [59] | [48] | [49] | [51] | [52] | [53] | [54] | [55] | [56]
